Tested on: T1, native SmNACE
T1 construct: native ectoenzyme on the outer tegument of live adult worms (2 male + 2 female per well)
Experiment: fluorimetric NAD glycohydrolase assay on live adult worms, ε-ADPR release
Type: cell-based, Schistosoma mansoni
Conditions: ε-NAD substrate (20 μM in the assay), live worms (2 male + 2 female) in 200 μl HBSS, 37 °C
Source text: fluorimetric NAD glycohydrolase assay on live adult worms, ε-ADPR release on native SmNACE | The IC50 of CMP1 on live parasites is indicated.

SMILES: Cc1occc1C(=O)N/N=C\c1ccc(O)c(O)c1 [CMP1, (Z)-N′-(3,4-Dihydroxybenzylidene)-2-methylfuran-3-carbohydrazide]
- IC50: 78 µM
